Assay results from patent US20070135509A1, “Indolone compounds useful to treat cognitive impairment” (priority 2005, published 2007).

Legend:
C57BL/6 mice [1] = test: Object recognition (novel object recognition memory); format: in vivo; conditions: for Discrimination Index (DI), 24 hour object recognition: mean±SEM, vehicle -10.2±4
From the text: Object Recognition. […] This task relies on the natural curiosity of rodents to explore novel objects in their environments more than familiar ones. Obviously, for an object to be “familiar,” the animal must have attended to it before and remembered that experience.
During training, a mouse is presented with two identical, novel objects. Mice explore them equally by approaching, sniffing and crawling over them. During testing, the animal is presented with the training object and a second, novel one. Memory of the training object renders it familiar to the animal, and it then spends more time exploring the new novel object rather than the familiar one (Bourtchouladze t al., 2003). […] Consistent with these findings, rats with the PFC lesions show poor working memory when they are required to discriminate between familiar and novel objects (Mitchell, 1998).
(§1) Subjects. Young-adult (10-12 weeks old) C57B1/6 male mice (Taconic, N.Y.) were used. The mice were housed (5 mice) in standard laboratory cages and maintained on a 12:12 light-dark cycle. The experiments were always conducted during the light phase of the cycle. The day before the initiation of the experiment, mice were housed single in individual cages and maintained so until the end of the experiment. With the exception of testing times, the mice had liberal access to food and water. The experiments were conducted in accordance with Animal Welfare Assurance #A3280-01. Animals were maintained in accordance with the Animal Welfare Act and Department of Health and Human Services Guide.
Object Recognition Training and Testing. […]
Object Recognition Data Analysis. […] Types were reviewed by a blinded observer and the following behavioral parameters were determined: time of exploration of an each object; the total time of exploration of the objects; number of approaches to the objects; and time (latency) to first approach to an object. The discrimination index—memory score—was determined as described previously (Ennaceur et al., 1997, Bourtchouladze et al., 2003). […] All values in the text and figures are expressed as mean±SEM. […]

C57BL/6 mice [2] = test: Contextual fear conditioning (contextual memory, freezing to context); format: in vivo; conditions: for 24 h contextual memory (freezing) / freezing to context 24 hr after training: mean±SEM; for 24 h contextual memory (freezing): controls 22.3±3.2%; for freezing to context 24 hr after training: controls 24.5±3.2%
From the text: Contextual Memory. Contextual memory is a form of Pavlovian fear conditioning in which a naïve mouse is placed into a novel chamber (context) containing distinct visual, olfactory and tactile cues. After a few seconds of acclimation, the mouse receives a brief, mild electric shock to its feet. From this negative experience, the mouse will remember for months that that chamber is dangerous. When placed back into the same context at some later time after training, the mouse's natural response to danger is to “freeze,” sitting stone still for many seconds. This is similar to what happens to humans when they experience fear. The percent of time during an observation period that the mouse spends frozen represents a quantitative measure (memory score) of its memory of the context.
as §1
Contextual Conditioning Training and Testing. To assess contextual memory, a standardized contextual fear conditioning task originally developed for evaluation of memory in cyclic AMP response element binding protein (“CREB”) knock-out mice was used (Bourtchouladze et al., 1994). On the training day, the mouse was placed into the conditioning chamber (Med Associates, Inc., VA) for 2 minutes before the onset of unconditioned stimulus (US), 0.5 mA, of 2 second foot shock. The US was repeated two times with a 1 min inter-trial interval between shocks. Training was performed by automated software package (Med Associates, Inc., VA). After the last training trial, the mice were left in the conditioning chamber for another 30 seconds and were then placed back in their home cages. 24 hours after training, the mouse was placed into the same training chamber and contextual memory was assessed by scoring freezing behavior (‘freezing’ serves as memory score). Freezing was defined as the complete lack of movement in intervals of 5 seconds (Kim et al., 1993; Phillips & LeDoux, 1992; Bourtchouladze et al., 1994; 1998; Abel et al., 1997). Total testing time lasted 3 minutes. After each experimental subject, the experimental apparatus was thoroughly cleaned with 75% ethanol, water, dried, and ventilated for a few minutes.
Contextual Conditioning Data Analysis. All experiments were designed and performed in a balanced fashion, meaning that (i) for each experimental condition (e.g. a specific dose-effect) we used an equal number of experimental and control mice; (ii) each experimental condition was replicated 2-3 independent times, and replicate days were added to generate final number of subjects. The proceeding of each experiment was filmed. In each experiment, the experimenter was unaware (blind) to the treatment of the subjects during training and testing. Data were analyzed by Student's unpaired t test using a software package (Statwiew 5.0.1; SAS Institute, Inc). All values in the text and figures are expressed as mean±SEM.
Drug Compound Administration. Compound 2 was freshly prepared from a stock solution (10 mg/ml DMSO), which was maintained at 4° C. Compound 2 was dissolved in a suspension of 5% DMSO and 95% CMC at 2% in water and administered intraperitoneally (I.P.) at doses 5 mg/kg; 10 mg/kg and 30 mg/kg 20 min before training or at 1 mg/kg and 30 mg/kg orally 60 min before training. Control animals received vehicle alone (5% DMSO and 95% CMC at 2% in water). […]

SMILES: O=C1C(=Nc2cccc(C(F)(F)F)c2)c2ccccc2N1c1ccccc1 [Compound 2, 1-PHENYL-3-[[3-(TRIFLUOROMETHYL)PHENYL]IMINO]-1,3-DIHYDRO-2H-INDOL-2-ONE]
- Effect on object recognition memory in mice (FIG. 3) (C57BL/6 mice [1]; 1 mg/kg and 5 mg/kg i.p. twenty (20) minutes before training, C57BL/6 mice): ameliorated long-term memory deficit
- Discrimination Index (DI), 24 hour object recognition (C57BL/6 mice [1]; 1 mg/kg i.p. 20 minutes before 15-minute training, p<0.05): 5.1±6
- Discrimination Index (DI), 24 hour object recognition (C57BL/6 mice [1]; 5 mg/kg i.p. 20 minutes before 15-minute training, p<0.0005): 18.8±6.6
- 24 h contextual memory (freezing) (C57BL/6 mice [2]; 1 mg/kg oral 60 min before training, p<0.01): 36.4±3.9%
- freezing to context 24 hr after training (C57BL/6 mice [2]; 5 mg/kg I.P. 20 min before training, p<0.05): 40.3±4.7%
- Effects on contextual memory in mice (FIG. 1) (C57BL/6 mice [2]; 5 mg/kg, 10 mg/kg and 30 mg/kg i.p., 24 hours after training): significantly facilitated freezing to context
- freezing to context 24 hr after training (C57BL/6 mice [2]; 10 mg/kg I.P. 20 min before training, p<0.01): 51.4±9.1%
- freezing to context 24 hr after training (C57BL/6 mice [2]; 30 mg/kg I.P. 20 min before training, p<0.001): 49.1±3.7%
- 24 h contextual memory (freezing) (C57BL/6 mice [2]; 30 mg/kg oral 60 min before training, p<0.05): 34.1±4.3%
- Effects on contextual memory in mice (FIG. 2) (C57BL/6 mice [2]; single dose of 1 mg/kg or 30 mg/kg orally, 24 hr): significantly enhanced 24 hr contextual memory
